How the values were obtained:
[1] = target: interaction between PD-1 and PD-L1 expressed on cell surfaces (Homo sapiens (Human), UniProt Q9NZQ7); test: Jurkat reporter gene cellular assay (Jurkat/NF-κB-luc/PD1 cells cocultured with Raji-PD-L1 cells, OKT-3 stimulation); format: cell-based; settings: NF-κB-luc reporter activation fold, 6 hrs; read-out: Cell Activity EC50
Summary of the method: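 EC50 comes from non-linear regression of activation fold (compound reading over DMSO reading) against concentration. Read-out was luciferase signal 6 h after OKT-3-stimulated coculture of PD-1/NF-κB-luc Jurkat cells with PD-L1-expressing Raji cells, 5*10^4 cells each per well.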

[2] = target: interaction between PD-1 and PD-L1 (Homo sapiens (Human), UniProt Q9NZQ7); test: PD1-PDL1 HTRF binding activity test (Cisbio PD-1/PD-L1 binding assay kit); settings: read-out: PD1-PDL1 HTRF Binding Activity IC50
Chain of interaction between PD-1 and PD-L1 (Q9NZQ7 19-238): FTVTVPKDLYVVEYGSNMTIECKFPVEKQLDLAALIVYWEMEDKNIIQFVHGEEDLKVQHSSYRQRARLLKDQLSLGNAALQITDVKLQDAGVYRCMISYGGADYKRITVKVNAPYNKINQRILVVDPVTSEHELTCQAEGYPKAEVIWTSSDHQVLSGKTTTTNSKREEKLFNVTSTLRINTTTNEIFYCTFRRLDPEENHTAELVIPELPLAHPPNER

Chain of interaction between PD-1 and PD-L1 expressed on cell surfaces (Q9NZQ7 19-290): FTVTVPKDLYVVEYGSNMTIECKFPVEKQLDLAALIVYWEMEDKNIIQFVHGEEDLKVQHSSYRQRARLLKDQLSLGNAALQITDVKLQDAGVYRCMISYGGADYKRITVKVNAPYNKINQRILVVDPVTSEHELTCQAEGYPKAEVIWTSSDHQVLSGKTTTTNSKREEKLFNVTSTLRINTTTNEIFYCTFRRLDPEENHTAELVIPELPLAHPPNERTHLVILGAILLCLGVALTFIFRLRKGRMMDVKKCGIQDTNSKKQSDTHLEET

Compound | EC50 [1] | IC50 [2]
Cc1c(NC(=O)c2cc(C3CC3)c(CN[C@H]3CCOC3=O)cn2)cccc1-c1cccc(NC(=O)c2cc(C3CC3)c(CN[C@H]3CCOC3=O)cn2)c1C [Example 113] | 979 nM | 6.77 nM
Cc1c(NC(=O)c2cc(C3CC3)c(CN[C@@H](CCO)C(=O)O)cn2)cccc1-c1cccc(NC(=O)c2cc(C3CC3)c(CN[C@@H](CCO)C(=O)O)cn2)c1C [Example 114, (2S,2′S)-2,2′-((((((2,2′-dimethyl-[1,1′-biphenyl]-3,3′-diyl)bis(azanediyl))bis(carbonyl))bis (4-cyclopropylpyridine-6,3-diyl))bis (methylene))bis(azanediyl))bis(4-hydroxybutanoic acid)] | 89 nM | 5.2 nM
CCOC(=O)C[C@H](NCc1cnc(C(=O)Nc2cccc(-c3cccc(NC(=O)c4cc(C5CC5)c(CN[C@@H](CC(=O)OCC)C(=O)OCC)cn4)c3C)c2C)cc1C1CC1)C(=O)OCC [Example 115, tetraethyl 2,2′-((((((2,2′-dimethyl-[1,1′-biphenyl]-3,3′-diyl)bis(azanediyl))bis(carbonyl))bis(4-cyclopropylpyridine-6,3-diyl))bis(methylene))bis(azanediyl)) (2S,2′S)-disuccinate] | > 10000 nM | > 400 nM
Cc1c(NC(=O)c2cc(C3CC3)c(CN[C@@H](CC(=O)O)C(=O)O)cn2)cccc1-c1cccc(NC(=O)c2cc(C3CC3)c(CN[C@@H](CC(=O)O)C(=O)O)cn2)c1C [Example 116, (2S,2′S)-2,2′-((((((2,2′-dimethyl-[1,1′-biphenyl]-3,3′-diyl)bis(azanediyl))bis(carbonyl))bis(4-cyclopropylpyridine-6,3-diyl))bis(methylene))bis(azanediyl))disuccinic acid] | 1340 nM | 0.94 nM
CCOC(=O)C[C@@H](NCc1cnc(C(=O)Nc2cccc(-c3cccc(NC(=O)c4cc(C5CC5)c(CN[C@H](CC(=O)OCC)C(=O)OCC)cn4)c3C)c2C)cc1C1CC1)C(=O)OCC [Example 117, tetraethyl 2,2′-((((((2,2′-dimethyl-[1,1′-biphenyl]-3,3′-diyl)bis(azanediyl))bis(carbonyl))bis (4-cyclopropylpyridine-6,3-diyl))bis (methylene))bis(azanediyl))(2R,2′R)-disuccinate] | > 10000 nM | > 400 nM
Cc1c(NC(=O)c2cc(C3CC3)c(CN[C@H](CC(=O)O)C(=O)O)cn2)cccc1-c1cccc(NC(=O)c2cc(C3CC3)c(CN[C@H](CC(=O)O)C(=O)O)cn2)c1C [Example 118, (2R,2′R)-2,2′-((((((2,2′-dimethyl-[1,1′-biphenyl]-3,3′-diyl)bis(azanediyl))bis(carbonyl))bis (4-cyclopropylpyridine-6,3-diyl))bis (methylene))bis(azanediyl))disuccinic acid] | 1040 nM | 1.17 nM
CCOC(=O)C(NCc1cnc(C(=O)Nc2cccc(-c3cccc(NC(=O)c4cc(C5CC5)c(CNC(C(=O)OCC)C(=O)OCC)cn4)c3C)c2C)cc1C1CC1)C(=O)OCC [Example 119, tetraethyl 2,2′-((((((2,2′-dimethyl-[1,1′-biphenyl]-3,3′-diyl)bis(azanediyl))bis(carbonyl))bis(4-cyclopropylpyridine-6,3-diyl))bis(methylene))bis(azanediyl))dimalonate] | > 10000 nM | > 400 nM
Cc1c(NC(=O)c2cc(C3CC3)c(CNC(C(=O)O)C(=O)O)cn2)cccc1-c1cccc(NC(=O)c2cc(C3CC3)c(CNC(C(=O)O)C(=O)O)cn2)c1C [Example 120, 2,2′-((((((2,2′-dimethyl-[1,1′-biphenyl]-3,3′-diyl)bis(azanediyl))bis(carbonyl))bis (4-cyclopropylpyridine-6,3-diyl))bis (methylene))bis(azanediyl))dimalonic acid] | 1760 nM | 1.43 nM
CCOC(=O)CNCc1cnc(C(=O)Nc2cccc(-c3cccc(NC(=O)c4cc(C5CC5)c(CNCC(=O)OCC)cn4)c3C)c2C)cc1C1CC1 [Example 121, diethyl 2,2′-((((((2,2′-dimethyl-[1,1′-biphenyl]-3,3′-diyl)bis(azanediyl))bis(carbonyl))bis(4-cyclopropylpyridine-6,3-diyl))bis(methylene))bis(azanediyl)) diacetate] | 1340 nM | 16.6 nM
Cc1c(NC(=O)c2cc(C3CC3)c(CNCC(=O)O)cn2)cccc1-c1cccc(NC(=O)c2cc(C3CC3)c(CNCC(=O)O)cn2)c1C [Example 122, 2,2′-((((((2,2′-dimethyl-[1,1′-biphenyl]-3,3′-diyl)bis(azanediyl))bis(carbonyl))bis(4-cyclopropylpyridine-6,3-diyl))bis(methylene))bis(azanediyl)) diacetic acid] | 19 nM | 1.14 nM
CCOC(=O)[C@H](C)NCc1cnc(C(=O)Nc2cccc(-c3cccc(NC(=O)c4cc(C5CC5)c(CN[C@@H](C)C(=O)OCC)cn4)c3C)c2C)cc1C1CC1 [Example 123] | 2410 nM | 22 nM
Cc1c(NC(=O)c2cc(C3CC3)c(CN[C@@H](C)C(=O)O)cn2)cccc1-c1cccc(NC(=O)c2cc(C3CC3)c(CN[C@@H](C)C(=O)O)cn2)c1C [Example 124, (2S,2S)-2,2′-((((((2,2′-dimethyl-[1,-1′-biphenyl]-3,3′-diyl)bis(azanediyl))bis (carbonyl))bis(4-cyclopropylpyridine-6,3-diyl))bis(methylene))bis(azanediyl)) dipropionic acid] | 14.7 nM | 1.09 nM
CCOC(=O)[C@@H](NCc1cnc(C(=O)Nc2cccc(-c3cccc(NC(=O)c4cc(C5CC5)c(CN[C@H](C(=O)OCC)C(C)C)cn4)c3C)c2C)cc1C1CC1)C(C)C [Example 125, diethyl 2,2′-((((((2,2′-dimethyl-[1,1′-biphenyl]-3,3′-diyl)bis(azanediyl))bis(carbonyl))bis(4-cyclopropylpyridine-6,3-diyl))bis(methylene))bis(azanediyl)) (2S,2′S)-bis(3-methylbutanoate)] | > 10000 nM | > 2000 nM
Cc1c(NC(=O)c2cc(C3CC3)c(CN[C@H](C(=O)O)C(C)C)cn2)cccc1-c1cccc(NC(=O)c2cc(C3CC3)c(CN[C@H](C(=O)O)C(C)C)cn2)c1C [Example 126, (2S,2S)-2,2-((((((2,2′-dimethyl-[1,1′-biphenyl]-3,3′-diyl)bis(azanediyl))bis (carbonyl))bis(4-cyclopropylpyridine-6,3-diyl))bis(methylene))bis(azanediyl)) bis(3-methylbutanoic acid)] | 64 nM | 1.11 nM
CCOC(=O)C1(NCc2cnc(C(=O)Nc3cccc(-c4cccc(NC(=O)c5cc(C6CC6)c(CNC6(C(=O)OCC)CC6)cn5)c4C)c3C)cc2C2CC2)CC1 [Example 127, diethyl 1,1′-((((((2,2′-dimethyl-[1,1′-biphenyl]-3,3′-diyl)bis(azanediyl))bis(carbonyl))bis(4-cyclopropylpyridine-6,3-diyl))bis(methylene))bis(azanediyl)) bis(cyclopropane-l-carboxylate)] | > 10000 nM | 113 nM
Cc1c(NC(=O)c2cc(C3CC3)c(CNC3(C(=O)O)CC3)cn2)cccc1-c1cccc(NC(=O)c2cc(C3CC3)c(CNC3(C(=O)O)CC3)cn2)c1C [Example 128, 1,1′-((((((2,2′-dimethyl-[1,1′-biphenyl]-3,3-diyl)bis(azanediyl))bis(carbonyl))bis (4-cyclopropylpyridine-6,3-diyl))bis (methylene))bis(azanediyl))bis (cyclopropane-1-carboxylic acid)] | 77.8 nM | 1.32 nM
CCOC(=O)CN(C)Cc1cnc(C(=O)Nc2cccc(-c3cccc(NC(=O)c4cc(C5CC5)c(CN(C)CC(=O)OCC)cn4)c3C)c2C)cc1C1CC1 [Example 129] | > 10000 nM | 102 nM
Cc1c(NC(=O)c2cc(C3CC3)c(CN(C)CC(=O)O)cn2)cccc1-c1cccc(NC(=O)c2cc(C3CC3)c(CN(C)CC(=O)O)cn2)c1C [Example 130, 2,2′-((((((2,2′-dimethyl-[1,1′-biphenyl]-3,3′-diyl)bis(azanediyl))bis (carbonyl))bis(4-cyclopropylpyridine-6,3-diyl))bis(methylene))bis (methylazanediyl))diacetic acid] | 600 nM | 0.99 nM
COC(=O)[C@@H]1CCN(Cc2cnc(C(=O)Nc3cccc(-c4cccc(NC(=O)c5cc(C6CC6)c(CN6CC[C@@H](C(=O)OC)C6)cn5)c4C)c3C)cc2C2CC2)C1 [Example 131, dimethyl 1,1′-(((((2,2′-dimethyl-[1,1′-biphenyl]-3,3′-diyl)bis(azanediyl))bis (carbonyl))bis(4-cyclopropylpyridine-6,3-diyl))bis(methylene))(3R,3′R)-bis (pyrrolidine-3-carboxylate)] | 2580 nM | 21.8 nM
Cc1c(NC(=O)c2cc(C3CC3)c(CN3CC[C@@H](C(=O)O)C3)cn2)cccc1-c1cccc(NC(=O)c2cc(C3CC3)c(CN3CC[C@@H](C(=O)O)C3)cn2)c1C [Example 132, (3R,3′R)-1,1′-(((((2,2′-dimethyl-[1,1′-biphenyl]-3,3′-diyl)bis(azanediyl))bis (carbonyl))bis(4-cyclopropylpyridine-6,3-diyl))bis(methylene))bis(pyrrolidine-3-carboxylic acid)] | 23.1 nM | 0.2 nM
COC(=O)[C@H]1CCN(Cc2cnc(C(=O)Nc3cccc(-c4cccc(NC(=O)c5cc(C6CC6)c(CN6CC[C@H](C(=O)OC)C6)cn5)c4C)c3C)cc2C2CC2)C1 [Example 133, dimethyl 1,1′-(((((2,2′-dimethyl-[1,1′-biphenyl]-3,3′-diyl)bis(azanediyl))bis (carbonyl))bis(4-cyclopropylpyridine-6,3-diyl))bis(methylene))(3S,3′S)-bis (pyrrolidine-3-carboxylate)] | 1900 nM | 11.8 nM

From patent US11459339B2, “Biaryl derivative, preparation method thereof and pharmaceutical application thereof” (Abbisko Therapeutics Co., Ltd., priority 2018, dated 2022)
